Laboratory results reported in ChEMBL document CHEMBL4387706, “Discovery of Novel Spiroindoline Derivatives as Selective Tankyrase Inhibitors” (J Med Chem, 2019).
Calls of active or inactive are those of the source. No cut-off for these calls is given here.

Columns and labels:
[1] = biological target: GABA-A receptor; anion channel (Rattus norvegicus) (UniProt O09028+P15431+P18506+P18508+P19969+P20236+P23574+P23576+P28471+P28473+P30191+P62813+P63079+P63138+Q91ZM7+Q9ES14); assay: Displacement of [3H]flunitrazepam from GABAA receptor in Wistar rat brain at 10 uM measured after 60 mins by scintillation counting method relative to control; format: tissue-based
[2] = biological target: D(1A) dopamine receptor (Homo sapiens) (UniProt P21728); assay: Displacement of [3H]SCH-23390 from full-length recombinant human D1 receptor expressed in CHO cells at 10 uM measured after 120 mins by scintillation counting method relative to control; format: cell-based
Sequence of D(1A) dopamine receptor (Homo sapiens) (P21728 whole entry): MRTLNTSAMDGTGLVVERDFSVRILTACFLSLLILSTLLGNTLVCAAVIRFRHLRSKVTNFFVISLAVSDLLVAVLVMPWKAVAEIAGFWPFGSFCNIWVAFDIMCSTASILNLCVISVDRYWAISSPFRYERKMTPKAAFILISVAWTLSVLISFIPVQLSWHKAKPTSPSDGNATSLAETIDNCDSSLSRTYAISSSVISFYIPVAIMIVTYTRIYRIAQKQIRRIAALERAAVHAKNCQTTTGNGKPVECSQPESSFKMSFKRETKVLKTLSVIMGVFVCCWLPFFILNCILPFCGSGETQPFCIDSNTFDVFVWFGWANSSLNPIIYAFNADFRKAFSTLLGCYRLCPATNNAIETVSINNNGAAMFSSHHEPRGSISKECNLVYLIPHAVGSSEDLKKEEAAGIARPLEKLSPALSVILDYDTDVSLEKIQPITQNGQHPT

Homo sapiens = organism: Homo sapiens; assay: Effect on hippo signaling protein in human COLO320DM cells assessed as change in AMOTL2 expression at 0.033 to 1 uM measured after 48 hrs by RT-PCR analysis; format: cell-based
[3] = biological target: Alpha-1A adrenergic receptor (Rattus norvegicus) (UniProt P43140); assay: Displacement of [3H]prazosin from alpha1A receptor in Wistar rat submaxillary gland membranes at 10 uM measured after 60 mins by scintillation counting method relative to control; format: cell membranes
Sequence of Alpha-1A adrenergic receptor (Rattus norvegicus) (P43140 whole entry): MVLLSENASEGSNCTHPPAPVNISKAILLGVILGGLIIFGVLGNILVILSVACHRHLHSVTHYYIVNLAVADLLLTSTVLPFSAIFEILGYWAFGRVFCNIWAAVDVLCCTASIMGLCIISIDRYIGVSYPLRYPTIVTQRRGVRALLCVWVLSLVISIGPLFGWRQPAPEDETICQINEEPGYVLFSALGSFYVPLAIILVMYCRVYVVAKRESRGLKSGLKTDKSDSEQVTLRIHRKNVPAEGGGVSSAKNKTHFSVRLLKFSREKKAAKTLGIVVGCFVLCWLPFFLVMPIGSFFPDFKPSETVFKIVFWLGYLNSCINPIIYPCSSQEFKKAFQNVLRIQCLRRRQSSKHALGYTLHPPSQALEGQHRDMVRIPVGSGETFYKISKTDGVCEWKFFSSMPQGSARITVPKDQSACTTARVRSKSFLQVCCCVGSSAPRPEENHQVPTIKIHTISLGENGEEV

[4] = biological target: cGMP-inhibited 3',5'-cyclic phosphodiesterase 3A (Homo sapiens) (UniProt Q14432); assay: Inhibition of full-length recombinant human PDE3A at 10 uM using FAM-cAMP as substrate measured after 30 mins by spectrofluorimetric method relative to control
Sequence of cGMP-inhibited 3',5'-cyclic phosphodiesterase 3A (Homo sapiens) (Q14432 whole entry): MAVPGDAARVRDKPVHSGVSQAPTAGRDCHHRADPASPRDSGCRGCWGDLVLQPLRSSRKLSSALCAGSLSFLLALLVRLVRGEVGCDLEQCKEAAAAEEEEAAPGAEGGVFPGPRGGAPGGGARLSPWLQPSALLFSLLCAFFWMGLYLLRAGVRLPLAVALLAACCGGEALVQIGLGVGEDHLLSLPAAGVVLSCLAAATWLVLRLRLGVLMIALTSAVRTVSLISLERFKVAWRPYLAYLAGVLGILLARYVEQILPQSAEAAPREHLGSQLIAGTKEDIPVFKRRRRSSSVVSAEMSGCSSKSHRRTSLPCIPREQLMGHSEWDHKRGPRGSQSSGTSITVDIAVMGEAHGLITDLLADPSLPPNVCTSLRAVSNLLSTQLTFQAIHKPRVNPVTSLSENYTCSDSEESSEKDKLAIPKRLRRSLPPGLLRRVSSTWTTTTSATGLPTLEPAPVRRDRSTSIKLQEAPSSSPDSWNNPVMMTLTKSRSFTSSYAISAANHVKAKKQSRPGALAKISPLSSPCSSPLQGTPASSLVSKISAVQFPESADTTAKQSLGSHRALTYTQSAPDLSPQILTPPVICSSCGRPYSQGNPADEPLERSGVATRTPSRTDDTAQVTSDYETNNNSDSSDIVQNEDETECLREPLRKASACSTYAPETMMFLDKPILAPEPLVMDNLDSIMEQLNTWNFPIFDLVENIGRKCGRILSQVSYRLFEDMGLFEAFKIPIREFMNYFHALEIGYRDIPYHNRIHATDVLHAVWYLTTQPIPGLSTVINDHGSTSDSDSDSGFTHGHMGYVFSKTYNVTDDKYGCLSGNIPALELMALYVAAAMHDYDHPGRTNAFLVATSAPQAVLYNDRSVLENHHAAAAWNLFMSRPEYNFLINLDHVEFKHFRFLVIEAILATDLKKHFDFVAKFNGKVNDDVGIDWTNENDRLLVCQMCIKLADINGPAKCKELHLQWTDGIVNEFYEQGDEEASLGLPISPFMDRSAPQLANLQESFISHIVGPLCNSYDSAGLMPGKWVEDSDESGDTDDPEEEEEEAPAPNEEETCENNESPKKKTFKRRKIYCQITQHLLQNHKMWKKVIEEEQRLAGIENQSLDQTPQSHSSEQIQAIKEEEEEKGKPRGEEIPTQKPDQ

[5] = biological target: Androgen receptor (Homo sapiens) (UniProt P10275); assay: Displacement of [3H]Methyltrienolone from human LNCAP cells-derived androgen receptor at 10 uM measured after 20 hrs by scintillation counting method relative to control; format: cell-based
Sequence of Androgen receptor (Homo sapiens) (P10275 whole entry): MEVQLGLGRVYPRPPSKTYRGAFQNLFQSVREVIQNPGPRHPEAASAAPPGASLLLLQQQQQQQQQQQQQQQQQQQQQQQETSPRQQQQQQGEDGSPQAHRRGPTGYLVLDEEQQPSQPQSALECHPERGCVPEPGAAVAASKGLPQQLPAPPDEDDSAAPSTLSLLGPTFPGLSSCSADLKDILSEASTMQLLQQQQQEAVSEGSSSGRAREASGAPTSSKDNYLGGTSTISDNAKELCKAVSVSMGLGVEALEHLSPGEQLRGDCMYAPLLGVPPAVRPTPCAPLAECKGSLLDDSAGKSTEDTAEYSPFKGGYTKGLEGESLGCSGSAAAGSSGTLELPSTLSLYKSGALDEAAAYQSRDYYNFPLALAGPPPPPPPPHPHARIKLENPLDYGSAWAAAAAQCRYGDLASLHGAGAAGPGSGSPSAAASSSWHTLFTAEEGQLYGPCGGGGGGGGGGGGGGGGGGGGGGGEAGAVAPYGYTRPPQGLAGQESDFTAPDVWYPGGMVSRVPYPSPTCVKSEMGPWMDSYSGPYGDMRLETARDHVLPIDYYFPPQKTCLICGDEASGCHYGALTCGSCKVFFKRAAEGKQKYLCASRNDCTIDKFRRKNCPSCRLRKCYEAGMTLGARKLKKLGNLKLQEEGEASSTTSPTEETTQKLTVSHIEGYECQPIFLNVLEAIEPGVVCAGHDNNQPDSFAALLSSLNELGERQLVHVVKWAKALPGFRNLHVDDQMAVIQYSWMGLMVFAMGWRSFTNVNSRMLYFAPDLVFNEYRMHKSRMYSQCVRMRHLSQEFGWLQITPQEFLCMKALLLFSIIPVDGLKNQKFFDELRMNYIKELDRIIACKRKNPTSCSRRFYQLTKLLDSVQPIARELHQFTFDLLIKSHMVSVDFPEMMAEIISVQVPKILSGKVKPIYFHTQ

Tankyrase 1/2 = biological target: T1, Tankyrase 1/2 (Homo sapiens, UniProt Q9H2K2+O95271)
T1 sequence (Q9H2K2 whole entry): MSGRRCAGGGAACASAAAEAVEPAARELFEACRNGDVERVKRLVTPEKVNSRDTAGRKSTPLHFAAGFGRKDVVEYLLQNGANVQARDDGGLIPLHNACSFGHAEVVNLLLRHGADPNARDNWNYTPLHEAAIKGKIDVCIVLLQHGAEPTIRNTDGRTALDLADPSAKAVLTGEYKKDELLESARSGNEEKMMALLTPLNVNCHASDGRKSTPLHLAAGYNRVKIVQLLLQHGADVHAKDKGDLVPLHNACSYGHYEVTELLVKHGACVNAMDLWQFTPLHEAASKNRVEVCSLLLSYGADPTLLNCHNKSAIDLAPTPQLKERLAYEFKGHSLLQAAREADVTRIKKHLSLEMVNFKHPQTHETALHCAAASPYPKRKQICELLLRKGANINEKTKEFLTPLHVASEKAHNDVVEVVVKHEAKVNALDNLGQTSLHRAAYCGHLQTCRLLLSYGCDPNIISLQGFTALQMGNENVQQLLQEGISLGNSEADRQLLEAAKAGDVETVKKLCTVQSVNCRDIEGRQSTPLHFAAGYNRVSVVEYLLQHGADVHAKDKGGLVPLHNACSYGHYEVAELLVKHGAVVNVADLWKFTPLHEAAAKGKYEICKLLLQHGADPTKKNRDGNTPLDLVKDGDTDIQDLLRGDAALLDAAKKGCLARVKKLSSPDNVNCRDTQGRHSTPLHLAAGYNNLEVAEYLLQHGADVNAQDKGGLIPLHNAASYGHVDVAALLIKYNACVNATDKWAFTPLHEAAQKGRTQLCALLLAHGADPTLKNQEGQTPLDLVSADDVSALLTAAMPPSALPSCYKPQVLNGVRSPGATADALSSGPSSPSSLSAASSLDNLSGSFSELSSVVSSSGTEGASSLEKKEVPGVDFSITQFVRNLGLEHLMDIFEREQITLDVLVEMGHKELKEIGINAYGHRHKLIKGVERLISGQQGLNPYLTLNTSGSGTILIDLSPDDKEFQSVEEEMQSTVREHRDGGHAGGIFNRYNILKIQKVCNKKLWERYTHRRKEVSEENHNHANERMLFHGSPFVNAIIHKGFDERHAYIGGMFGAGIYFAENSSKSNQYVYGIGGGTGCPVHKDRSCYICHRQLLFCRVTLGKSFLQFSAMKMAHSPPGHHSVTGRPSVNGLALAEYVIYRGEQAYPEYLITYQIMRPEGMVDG
T1 sequence (O95271 whole entry): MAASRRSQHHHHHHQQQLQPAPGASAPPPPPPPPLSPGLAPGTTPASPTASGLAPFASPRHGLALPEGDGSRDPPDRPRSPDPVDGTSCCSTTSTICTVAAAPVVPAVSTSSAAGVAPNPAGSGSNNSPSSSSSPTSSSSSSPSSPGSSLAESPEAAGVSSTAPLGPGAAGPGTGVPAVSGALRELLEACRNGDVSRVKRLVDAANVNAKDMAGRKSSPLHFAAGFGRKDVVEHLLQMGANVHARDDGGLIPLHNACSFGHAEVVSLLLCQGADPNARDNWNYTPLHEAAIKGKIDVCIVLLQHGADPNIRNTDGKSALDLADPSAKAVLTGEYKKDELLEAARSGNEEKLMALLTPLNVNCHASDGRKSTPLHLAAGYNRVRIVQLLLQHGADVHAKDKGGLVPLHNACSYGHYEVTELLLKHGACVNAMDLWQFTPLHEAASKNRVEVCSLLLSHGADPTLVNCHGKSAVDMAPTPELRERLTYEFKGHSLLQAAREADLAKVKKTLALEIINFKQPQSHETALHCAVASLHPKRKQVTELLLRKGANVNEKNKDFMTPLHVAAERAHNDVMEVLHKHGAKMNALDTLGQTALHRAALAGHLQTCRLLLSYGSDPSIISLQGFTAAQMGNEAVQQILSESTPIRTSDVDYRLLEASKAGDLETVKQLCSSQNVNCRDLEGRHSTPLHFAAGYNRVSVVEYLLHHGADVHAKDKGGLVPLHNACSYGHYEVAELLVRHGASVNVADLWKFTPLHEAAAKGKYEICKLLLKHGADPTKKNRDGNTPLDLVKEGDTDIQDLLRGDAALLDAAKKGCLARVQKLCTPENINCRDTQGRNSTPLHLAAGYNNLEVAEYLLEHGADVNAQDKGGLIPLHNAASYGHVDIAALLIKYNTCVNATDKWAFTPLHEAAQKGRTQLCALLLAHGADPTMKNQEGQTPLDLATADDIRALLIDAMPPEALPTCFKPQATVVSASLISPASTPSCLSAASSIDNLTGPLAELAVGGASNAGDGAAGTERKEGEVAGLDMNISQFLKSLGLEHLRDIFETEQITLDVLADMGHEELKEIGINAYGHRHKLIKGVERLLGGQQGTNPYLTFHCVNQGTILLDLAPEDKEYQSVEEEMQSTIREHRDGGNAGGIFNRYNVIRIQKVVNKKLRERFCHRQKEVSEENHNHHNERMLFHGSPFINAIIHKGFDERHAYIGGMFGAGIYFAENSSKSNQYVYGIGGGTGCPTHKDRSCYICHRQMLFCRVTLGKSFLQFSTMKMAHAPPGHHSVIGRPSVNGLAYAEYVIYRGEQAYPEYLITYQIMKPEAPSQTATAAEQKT
Description: Inhibition of TNKS/TNKS2 (unknown origin) expressed in human DLD1 cells assessed as reduction in Wnt-signaling measured after 24 hrs by TCF-luciferase reporter gene assay

Row | IC50 (Tankyrase 1/2) [nM] | SMILES | inhibition [1] [%] | inhibition [2] [%] | Activity (Homo sapiens) | inhibition [3] [%] | inhibition [4] [%] | inhibition [5] [%]
1 | – | O=c1[nH]c(N2CCC3(CC2)CN(CCO)c2cc(F)cc(F)c23)nc2c1CCCC2 | > 20 | > 20 | inactive | > 20 | > 20 | > 20
2 | 233 | COc1ccccc1N1CCN(c2nc3c(c(=O)[nH]2)CCCC3)CC1 | – | – | – | – | – | –
